From publication PMC3755750 (Cancer chemotherapy and pharmacology, 2013)
Where two headings read alike, the source gives them in different places.

Key:
[1] = cited from earlier work
[2] = cited from earlier work; for Fa, fraction absorbed / Bioavailability / Fraction of dose absorbed: mice; for Fa, fraction absorbed: fixed in the PBPK model; for Bioavailability: oral
[3] = ref Pubchem Compound; cited from earlier work
[4] = type: in vivo, mice (BALB/c, CB17 SCID, tumor-bearing CB17 SCID); details: for Tmax: BALB/c, mouse, po; for Dose proportionality of Cmax in plasma and tissues: across mouse strains, sorafenib: all tissues except the tumor; for ka, absorption rate constant: fitted to Study#1 data, then fixed
[5] = iv dosing; cited from earlier work
P-glycoprotein (P-gp) = details: in vitro; cited from earlier work
CYP2D6 = details: human liver microsomes; cited from earlier work
[6] = concomitant CYP3A4 inhibitor ketoconazole; cited from earlier work
CYP3A4 = details: human liver microsomes; cited from earlier work
CYP2C19 = details: human liver microsomes; cited from earlier work
[7] = CB17-SCID, plasma and most tissues

In the case of `CO[C@H]1C[C@@H]2CC[C@@H](C)[C@@](O)(O2)C(=O)C(=O)N2CCCC[C@H]2C(=O)O[C@H]([C@H](C)C[C@@H]2CC[C@@H](OCCO)[C@H](OC)C2)CC(=O)[C@H](C)/C=C(\C)[C@@H](O)[C@@H](OC)C(=O)[C@H](C)C[C@H](C)/C=C/C=C/C=C/1C` [everolimus, Everolimus], the “Increase of everolimus AUC” value ([1]; concomitant strong CYP inhibitor ketoconazole, humans) is listed as 15 fold, the “Increase of everolimus AUC” value ([1]; moderate CYP inhibitors erythromycin, verapamil, cyclosporine) is listed as 2.7–4.5 fold and the “Change in everolimus AUC” value ([1]; weak inhibitor atorvastatin) is listed as “no change”. The “Fa, fraction absorbed” value [2] was 0.12, the Bioavailability [2] was 5% and the “Fraction of dose absorbed” value [2] was 12%. The “log P” value [3] was 5.9, the Tmax [4, 7] was 1 h and the Tmax ([4]; adipose and skin, 5 mg/kg) was no more than 6 h. For the same compound, the “Kbr, partition coefficient brain” value ([4]; PBPK population mean, mice) was 0.018, the “Kmu, partition coefficient muscle” value ([4]; PBPK population mean, mice) was 0.105 and the “Ksp, partition coefficient spleen” value ([4]; PBPK population mean, mice) was 0.361. The “Dose proportionality of Cmax in plasma and tissues” value [4] was “dose-proportional”, the “ka, absorption rate constant” value [4] was 9.45 h⁻¹ and the “Time detected in plasma and all tissues after the last dose” value ([4]; oral dosing) was “up to 24 h”. For the same compound, the “Ktu, partition coefficient tumor” value ([4]; patient-derived primary pancreatic adenocarcinoma explants in SCID mice) was 0.480 and the “PK (AUC) given alone versus in combination” value ([4]; student's t test of AUCs from each study, mice) was “no statistically significant difference”.
In the case of `CNC(=O)c1cc(Oc2ccc(NC(=O)Nc3ccc(Cl)c(C(F)(F)F)c3)cc2)ccn1` [sorafenib, Sorafenib], the “Partition coefficient K for brain, calculated” value [5] is given as 0.02, the “Dose proportionality in Cmax and AUC” value ([2]; CD-1 mice, at the doses tested) is given as “dose proportionality” and the Terminal half-life ([2]; CD-1 mice) is given as 3.2 to 4.2 h. For the same compound, the Tmax ([2]; CD-1 mice) was 1 to 1.6 h, the “Fa, fraction absorbed” value [2] was 0.920 and the Bioavailability [2] was 80%. The “Fraction of dose absorbed” value [2] was 92%, the P-gp substrate character (P-glycoprotein (P-gp)) was “weak P-glycoprotein (P-gp) substrate” and the CYP2D6 inhibition (CYP2D6) was “moderate inhibitor”. For the same compound, the “Change in Cmax and exposure, adverse events” value [6] was “lack of clinically relevant adverse events or change in Cmax and exposure”, the CYP3A4 inhibition (CYP3A4) was “moderate inhibitor” and the Tmax ([4]; CB17-SCID, GI tract) was 1 h. The Tmax [4, 7] was 6 h, the “Kf, partition coefficient adipose” value ([4]; PBPK population mean, mice) was 0.624 and the “Kmu, partition coefficient muscle” value ([4]; PBPK population mean, mice) was 0.356. The “Ksk, partition coefficient skin” value ([4]; PBPK population mean, mice) was 0.361, the “Clint, hepatic clearance” value ([4]; PBPK population mean, oral dosing, mice) was 6.64 mL/h and the “Dose proportionality of Cmax in plasma and tissues” value [4] was “dose-proportional”. The “ka, absorption rate constant” value [4] was 3.83 h⁻¹, the “Time detected in plasma and all tissues after the last dose” value ([4]; oral dosing) was “up to 24 h” and the “Increase in tumor exposure” value ([4]; twofold increase in sorafenib dose) was “tenfold”. The CYP2C19 inhibition (CYP2C19) was “moderate inhibitor”.
